Patent publication US20230234917A1, “ASPARAGINE DERIVATIVES AND METHODS OF USING SAME” (priority 2020, published 2023)

Legend:
ClbP [1] = target: T1, ClbP (Escherichia coli, UniProt Q0P7K6); assay: ClbP whole cell activity (inhibition) assay, fluorogenic substrate; assay type: cell-based, E. coli
Summary of the method: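 E. coli ClbP+ overnight culture washed and concentrated fivefold in PBS, mixed with inhibitor (0–300 μM, 4% DMSO) and 5 μM fluorogenic substrate at 37 °C. Fluorescence (ex 360/em 460 nm) read every 2 min for 46 min. Rates from 10–30 min normalized to no inhibitor and fit to a three-parameter IC50.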

ClbP [2] = target: T1, ClbP; assay: ClbP cell lysate activity (inhibition) assay, fluorogenic substrate; assay type: biochemical; settings: ClbP Lysate Inhibition Assay: IC50, E. coli ClbP+ lysozyme-EDTA lysates, 5 μM fluorogenic substrate, inhibitor 0-300 μM, 37° C., singlicate
Summary of the method: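 E. coli ClbP+ overnight culture lysed with lysozyme-EDTA (30 min, 37 °C); lysate (fivefold concentrated vs culture) mixed with inhibitor (0–300 μM, 4% DMSO) and 5 μM fluorogenic substrate. Fluorescence (ex 360/em 460 nm) read at 37 °C; 0–20 min rates normalized to no-inhibitor, three-parameter IC50 fit, singlicate.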

Full-length WT ClbP = Full-length WT ClbP (Escherichia coli, UniProt Q0P7K6); assay: ClbP molecular (purified protein) enzymatic inhibition assay, fluorogenic substrate; assay type: biochemical, E. coli

Row | SMILES | IC50 (ClbP [1]) | IC50 (ClbP [2]) | IC50 (Full-length WT ClbP)
1 | CCCCCCCC(=O)N[C@@H](CNCCc1ccccc1)CC(N)=O [Compound IX] | > 300 µM | > 300 µM | 100 to 300 µM
2 | O=C(/C=C/C1CCCCC1)N[C@H](CC(=O)NO)C(=O)NCCc1ccc(O)cc1 [Compound CCXCIV] | < 100 µM | < 100 µM | < 100 µM
3 | CCCCCCCC(=O)N[C@H](CC(N)=O)C(=O)NCCc1ccc(F)cc1 [Compound CCLXXIV] | < 100 µM | < 100 µM | < 100 µM
4 | CCCCCCCC(=O)N[C@H](CC(N)=O)C(=O)NCCc1ccccc1 [Compound III] | < 100 µM | < 100 µM | < 100 µM
5 | O=C(/C=C/CC1CCCC1)N[C@H](CC(=O)NO)C(=O)NCCc1ccc(O)cc1 [Compound CCXCVIII] | < 100 µM | < 100 µM | < 100 µM
6 | NC(=O)C[C@@H](NC(=O)/C=C/CC1CCCC1)C(=O)NCCc1ccccc1 [Compound CCLXII] | > 300 µM | > 300 µM | < 100 µM
7 | CCCCCCCC(=O)N[C@H](CC(=O)NC)C(=O)NCCc1ccccc1 [Compound CCXVI] | < 100 µM | 100 to 300 µM | 100 to 300 µM
8 | CCCCCCCC(=O)N[C@H](CC(N)=O)C(=O)NCCOc1ccccc1 [Compound CCLIV] | < 100 µM | < 100 µM | < 100 µM
9 | CCCCCCCC(=O)N[C@H](CC(N)=O)C(=O)c1nccn1Cc1ccccc1 [Compound CCLVIII] | > 300 µM | > 300 µM | 100 to 300 µM
10 | CCCCCC(=O)N[C@H](CC(N)=O)C(=O)NCCc1ccccc1 [Compound CCLXVII] | < 100 µM | 100 to 300 µM | < 100 µM
11 | CCCCCCCC(=O)N[C@H](CC(N)=O)C(=O)NCCc1ccc(C(=O)O)cc1 [Compound CXCVIII] | < 100 µM | 100 to 300 µM | < 100 µM
12 | CCCCCC(=O)N[C@H](CC(N)=O)C(=O)NCCc1ccc(C(F)(F)F)cc1 [Compound CCLXXV] | > 300 µM | > 300 µM | < 100 µM
13 | CCCCCCCC(=O)N[C@H](CC(N)=O)C(=O)N[C@@H](C)Cc1ccc(O)cc1 [Compound CCXLIV] | < 100 µM | < 100 µM | < 100 µM
14 | CCCCCCCC(=O)N[C@H](CC(=O)NOC)C(=O)NCCc1ccc(O)cc1 [Compound CCLXXXV] | 100 to 300 µM | 100 to 300 µM | < 100 µM
15 | CCCCCCCC(=O)N[C@H](CC(N)=O)C(=O)N[C@H](C)Cc1ccc(O)cc1 [Compound CCXLV] | < 100 µM | < 100 µM | < 100 µM
16 | NC(=O)C[C@@H](NC(=O)CCCc1ccccc1)C(=O)NCCc1ccccc1 [Compound CCLXIX] | < 100 µM | < 100 µM | < 100 µM
17 | CCCCCCCC(=O)N[C@H](CC(N)=O)c1ncnn1Cc1ccccc1 [Compound CCCXII] | > 300 µM | > 300 µM | > 300 µM
